Measurements: patent publication US20100099561A1, “HETEROBICYCLIC ALKYLTHIO-BRIDGED ISOXAZOLINES” (E.I. DU PONT DE NEMOURS AND COMPANY, priority 2008, published 2010)

How the values were obtained:
Type in all cases: in vivo
[1] = tested on: wheat (Triticum aestivum); assay: Test B preemergence, wheat; details: Preemergence, scale 0 to 100
From the text: (§1) Seeds of plant species selected from blackgrass (Alopecurus myosuroides), downy bromegrass (Bromus tectorum), green foxtail (Setaria viridis), Italian ryegrass (Lolium multiflorum), wheat (Triticum aestivum), wild oat (Avena fatua), catchweed bedstraw (Galium aparine), bermudagrass (Cynodon dactylon), Surinam grass (Brachiaria decumbens), cocklebur (Xanthium strumarium), corn (Zea mays), large crabgrass (Digitaria sanguinalis), woolly cupgrass (Eriochloa villosa), giant foxtail (Setaria faberii), goosegrass (Eleusine indica), johnsongrass (Sorghum halepense), kochia (Kochia scoparia), lambsquarters (Chenopodium album), morningglory (Ipomoea coccinea), nightshade (eastern black nightshade, Solanum ptycanthum), yellow nutsedge (Cyperus esculentus), pigweed (Amaranthus retroflexus), ragweed (common ragweed, Ambrosia elatior), soybean (Glycine max), sunflower (common oilseed sunflower, Helianthus annuus), Russian thistle (Salsola kali), and velvetleaf (Abutilon theophrasti) were planted into a blend of loam soil and sand and treated preemergence with test compounds formulated in a non-phytotoxic solvent mixture which included a surfactant. Treated plants and controls were maintained in a greenhouse for 13 to 15 days, after which time all species were compared to controls and visually evaluated. Plant response ratings, summarized in Table B, are based on a scale of 0 to 100 where 0 is no effect and 100 is complete control. A dash (-) response means no test result.

[2] = tested on: giant foxtail (Setaria faberi); assay: Test A preemergence, giant foxtail; details: 0 to 100 scale (0 no effect, 100 complete control)
Method in brief: (§2)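 Scores reflect visual plant injury on a 0 (no effect) to 100 (complete control) scale, assessed about ten days after application in the greenhouse. Compounds were delivered in a non-phytotoxic solvent blend with surfactant, either preemergence to soil or postemergence at one- to two-leaf stage.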

[3] = tested on: cocklebur (Xanthium strumarium); assay: Test B preemergence, cocklebur; details: scale 0 to 100
From the text: as §1

[4] = tested on: morningglory (Ipomoea spp.); assay: Test A postemergence, morningglory; details: 0 to 100 scale (0 no effect, 100 complete control)
Method in brief: as §2

[5] = tested on: pigweed (Amaranthus retroflexus); assay: Test B preemergence, pigweed; details: scale 0 to 100
From the text: as §1

corn (Zea mays) = assay: Test A postemergence, corn; details: 0 to 100 scale (0 no effect, 100 complete control)
Method in brief: as §2

[6] = tested on: bermudagrass (Cynodon dactylon); assay: Test B preemergence, bermudagrass; details: scale 0 to 100
From the text: as §1

[7] = tested on: pigweed (Amaranthus retroflexus); assay: Test A postemergence, pigweed; details: 0 to 100 scale (0 no effect, 100 complete control)
Method in brief: as §2

[8] = tested on: blackgrass (Alopecurus myosuroides); assay: Test B preemergence, blackgrass; details: scale 0 to 100
From the text: as §1

[9] = tested on: ragweed (common ragweed, Ambrosia elatior); assay: Test B preemergence, ragweed; details: scale 0 to 100
From the text: as §1

wild oat (Avena fatua) = assay: Test B preemergence, wild oat; details: scale 0 to 100
From the text: as §1

[10] = tested on: sunflower (common oilseed sunflower, Helianthus annuus); assay: Test B preemergence, sunflower; details: Preemergence, scale 0 to 100
From the text: as §1

[11] = tested on: catchweed bedstraw (Galium aparine); assay: Test B preemergence, catchweed bedstraw; details: scale 0 to 100
From the text: as §1

[12] = tested on: green foxtail (Setaria viridis); assay: Test B preemergence, green foxtail; details: scale 0 to 100
From the text: as §1

[13] = tested on: velvetleaf (Abutilon theophrasti); assay: Test B preemergence, velvetleaf; details: Preemergence, scale 0 to 100
From the text: as §1

[14] = tested on: woolly cupgrass (Eriochloa villosa); assay: Test B preemergence, woolly cupgrass; details: scale 0 to 100
From the text: as §1

[15] = tested on: goosegrass (Eleusine indica); assay: Test B preemergence, goosegrass; details: scale 0 to 100
From the text: as §1

[16] = tested on: giant foxtail (Setaria faberi); assay: Test A postemergence, giant foxtail; details: 0 to 100 scale (0 no effect, 100 complete control)
Method in brief: as §2

[17] = tested on: yellow nutsedge (Cyperus esculentus); assay: Test B preemergence, yellow nutsedge; details: scale 0 to 100
From the text: as §1

[18] = tested on: large crabgrass (Digitaria sanguinalis); assay: Test B preemergence, large crabgrass; details: scale 0 to 100
From the text: as §1

[19] = tested on: downy bromegrass (Bromus tectorum); assay: Test B preemergence, downy bromegrass; details: scale 0 to 100
From the text: as §1

CC1(C)CC(S(=O)(=O)Cc2c(C(F)(F)F)nc3n(c2=O)CCO3)=NO1 [Compound 2, 6-[[(4,5-dihydro-5,5-dimethyl-3-isoxazolyl)sulfonyl]methyl]-2,3-dihydro-7-(trifluoromethyl)-5H-oxazolo[3,2-α]pyrimidin-5-one]
Plant response rating, Wheat ([1]; 16 g ai/ha): 0
Plant response rating, Wheat ([1]; 31 g ai/ha): 0
Plant response rating, Wheat ([1]; 62 g ai/ha): 0
Plant response rating, Foxtail, Giant ([2]; 125 g ai/ha): 90
Plant response rating, Foxtail, Giant ([2]; 500 g ai/ha): 100
Plant response rating, Cocklebur ([3]; 8 g ai/ha): 0
Plant response rating, Cocklebur ([3]; 16 g ai/ha): 0
Plant response rating, Cocklebur ([3]; 31 g ai/ha): 0
Plant response rating, Cocklebur ([3]; 62 g ai/ha): 0
Plant response rating, Morningglory ([4]; 125 g ai/ha): 30
Plant response rating, Morningglory ([4]; 500 g ai/ha): 70
Plant response rating, Pigweed ([5]; 8 g ai/ha): 0
Plant response rating, Pigweed ([5]; 16 g ai/ha): 0
Plant response rating, Pigweed ([5]; 31 g ai/ha): 0
Plant response rating, Pigweed ([5]; 62 g ai/ha): 0
Plant response rating, Corn (corn (Zea mays); 125 g ai/ha): 0
Plant response rating, Corn (corn (Zea mays); 500 g ai/ha): 50
Plant response rating, Bermudagrass ([6]; 8 g ai/ha): 0
Plant response rating, Bermudagrass ([6]; 16 g ai/ha): 0
Plant response rating, Bermudagrass ([6]; 31 g ai/ha): 75
Plant response rating, Bermudagrass ([6]; 62 g ai/ha): 85
Plant response rating, Pigweed ([7]; 125 g ai/ha): 20
Plant response rating, Pigweed ([7]; 500 g ai/ha): 60
Plant response rating, Blackgrass ([8]; 8 g ai/ha): 0
Plant response rating, Blackgrass ([8]; 16 g ai/ha): 0
Plant response rating, Blackgrass ([8]; 31 g ai/ha): 0
Plant response rating, Blackgrass ([8]; 62 g ai/ha): 50
Plant response rating, Ragweed ([9]; 31 g ai/ha): 0
Plant response rating, Ragweed ([9]; 62 g ai/ha): 20
Plant response rating, Oat, Wild (wild oat (Avena fatua); 8 g ai/ha): 0
Plant response rating, Oat, Wild (wild oat (Avena fatua); 16 g ai/ha): 0
Plant response rating, Oat, Wild (wild oat (Avena fatua); 31 g ai/ha): 0
Plant response rating, Oat, Wild (wild oat (Avena fatua); 62 g ai/ha): 25
Plant response rating, Sunflower ([10]; 16 g ai/ha): 0
Plant response rating, Sunflower ([10]; 31 g ai/ha): 0
Plant response rating, Sunflower ([10]; 62 g ai/ha): 0
Plant response rating, Galium ([11]; 8 g ai/ha): 0
Plant response rating, Galium ([11]; 16 g ai/ha): 100
Plant response rating, Galium ([11]; 31 g ai/ha): 100
Plant response rating, Galium ([11]; 62 g ai/ha): 100
Plant response rating, Foxtail, Green ([12]; 8 g ai/ha): 0
Plant response rating, Foxtail, Green ([12]; 16 g ai/ha): 10
Plant response rating, Foxtail, Green ([12]; 31 g ai/ha): 55
Plant response rating, Foxtail, Green ([12]; 62 g ai/ha): 85
Plant response rating, Velvetleaf ([13]; 16 g ai/ha): 0
Plant response rating, Velvetleaf ([13]; 31 g ai/ha): 0
Plant response rating, Velvetleaf ([13]; 62 g ai/ha): 0
Plant response rating, Cupgrass, Woolly ([14]; 8 g ai/ha): 0
Plant response rating, Cupgrass, Woolly ([14]; 16 g ai/ha): 75
Plant response rating, Cupgrass, Woolly ([14]; 31 g ai/ha): 75
Plant response rating, Cupgrass, Woolly ([14]; 62 g ai/ha): 95
Plant response rating, Goosegrass ([15]; 8 g ai/ha): 0
Plant response rating, Goosegrass ([15]; 16 g ai/ha): 65
Plant response rating, Goosegrass ([15]; 31 g ai/ha): 75
Plant response rating, Goosegrass ([15]; 62 g ai/ha): 80
Plant response rating, Foxtail, Giant ([16]; 125 g ai/ha): 50
Plant response rating, Foxtail, Giant ([16]; 500 g ai/ha): 80
Plant response rating, Nutsedge, Yellow ([17]; 8 g ai/ha): 0
Plant response rating, Nutsedge, Yellow ([17]; 16 g ai/ha): 0
Plant response rating, Nutsedge, Yellow ([17]; 31 g ai/ha): 0
Plant response rating, Nutsedge, Yellow ([17]; 62 g ai/ha): 0
Plant response rating, Crabgrass, Large ([18]; 8 g ai/ha): 0
Plant response rating, Crabgrass, Large ([18]; 16 g ai/ha): 65
Plant response rating, Crabgrass, Large ([18]; 31 g ai/ha): 80
Plant response rating, Crabgrass, Large ([18]; 62 g ai/ha): 90
Plant response rating, Bromegrass, Downy ([19]; 8 g ai/ha): 0
Plant response rating, Bromegrass, Downy ([19]; 16 g ai/ha): 0
Plant response rating, Bromegrass, Downy ([19]; 31 g ai/ha): 0
Plant response rating, Bromegrass, Downy ([19]; 62 g ai/ha): 0
